Data: patent US6545032B1, “Synthesis of [3,5,7]-H-imidazo[1,5-a] imidazol-2(3H)-one compounds” (Torrey Pines Institute for Molecular Studies, priority 1999, dated 2003)

How the values were obtained:
mu opiate receptor = target: T1, mu opiate receptor (Rattus norvegicus, UniProt P33535); assay: Inhibition of [3H]DAMGO binding to the mu opiate receptor in rat brain homogenates; parameters: Mean: unit not given beside the values; details: 0.08 mg of compound per milliliter, 7 nM 3H-labeled DAMGO, rat brain membranes; for % Bound: [3H]DAMGO bound; for Mean: mean bound radioactivity of [3H]DAMGO; for Minus NSB*: mean minus non-specific binding; for % Inhibition: percent inhibition of DAMGO binding
T1 construct: from tissue; host or cells: rat brain membranes/homogenate
T1 sequence (P33535 whole entry): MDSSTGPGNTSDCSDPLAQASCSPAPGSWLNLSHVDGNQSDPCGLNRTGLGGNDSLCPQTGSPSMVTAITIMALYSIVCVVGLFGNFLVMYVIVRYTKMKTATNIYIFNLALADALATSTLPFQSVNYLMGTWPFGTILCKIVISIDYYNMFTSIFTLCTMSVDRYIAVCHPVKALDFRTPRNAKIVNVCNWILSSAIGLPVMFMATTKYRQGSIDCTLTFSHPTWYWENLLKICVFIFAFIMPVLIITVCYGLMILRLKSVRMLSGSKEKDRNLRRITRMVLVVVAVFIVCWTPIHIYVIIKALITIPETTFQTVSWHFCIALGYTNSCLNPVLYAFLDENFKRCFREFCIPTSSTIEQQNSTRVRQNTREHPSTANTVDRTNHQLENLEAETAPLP
Procedure: The previously prepared [3,5,7]-1H-imidazo[1,5-a]-imidazol-2(3H)-one library of individual compounds was screened for the ability to inhibit the binding of [^3H] [D-Ala^2,MePhe^4,Gly^5-ol]enkephalin (DAMGO) that is known to bind specifically to the mu opiate receptor present in rat brain homogenates following literature procedures. [Dooley et al., Science, 266:2019(1994); U.S. Pat. No. 5,763,193.]
Preparation of rat brain membranes and the receptor binding assay were carried out as described in Dooley et al., Life Sci., 52:1509(1993). Each tube in the screening assay contained 0.08 mg of compound mixture per milliliter, 0.5 mL of membrane suspension (0.1 mg of protein), 7 nM ^3H-labeled DAMGO [specific activity 36 Ci/mmol, obtained from the National Institute on Drug Abuse (NIDA) repository through Chiron Mimotopes PeptideSystems (San Diego, Calif.) and […] of peptide mixture in 50 mM Tris-HCl buffer (pH 7.4). The final volume was 0.65 mL. The results of these screenings are shown in the table, below, wherein the “R” groups are as discussed for Example 1. The results are reported as percent inhibition of DAMGO binding.

kappa opiate receptor = target: T2, kappa opiate receptor (Cavia porcellus, UniProt P41144); assay: Inhibition of tritiated U69,593 binding to the kappa opiate receptor in guinea pig brain homogenates; parameters: Mean: unit not given beside the values; details: 3 nm tritiated U69,593, guinea pig brain membranes; for % Bound: [3H]U69,593 bound; for % Inhibition: inhibition of [3H]U69,593 binding; for Mean: mean bound radioactivity of [3H]U69,593, 2.5 hours 25° C.; for Minus NSB: mean minus non-specific binding
T2 construct: guinea pig cortices and cerebella were homogenized in 40 mL of Buffer A; from tissue; host or cells: guinea pig cortices and cerebella, crude membrane suspension
T2 sequence (P41144 whole entry): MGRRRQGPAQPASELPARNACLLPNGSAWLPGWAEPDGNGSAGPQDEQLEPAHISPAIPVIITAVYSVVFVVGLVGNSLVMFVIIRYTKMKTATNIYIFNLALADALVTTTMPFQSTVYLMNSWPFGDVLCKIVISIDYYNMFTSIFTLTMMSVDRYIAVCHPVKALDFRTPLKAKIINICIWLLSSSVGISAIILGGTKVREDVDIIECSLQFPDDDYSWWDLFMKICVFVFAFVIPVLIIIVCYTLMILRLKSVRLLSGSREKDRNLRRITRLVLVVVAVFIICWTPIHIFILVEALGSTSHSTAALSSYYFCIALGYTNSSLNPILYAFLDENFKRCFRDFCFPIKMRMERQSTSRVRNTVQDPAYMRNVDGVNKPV
Procedure: The above-prepared library of individual compounds was screened for the ability to inhibit the binding of tritiated Compound U69,593 that is known to bind specifically to the kappa opiate receptor present in guinea pig brain homogenates following literature procedures. [Dooley et al., J. Biol. Chem., 273(30) 18848-18856 (1998)]
Briefly, guinea pig cortices and cerebella were homogenized in 40 mL of Buffer A [50 mM Tris-HCl, pH 7.4] at 4° C. Homogenates were centrifuged [Beckman® J2-HC, 35, 300×g] for 10 minutes. The pellets were resuspended in fresh buffer and incubated at 37° C. for 40 minutes. Following incubation, the suspensions were centrifuged as before, the resulting pellets resuspended in 100 volumes of Tris buffer, and the suspensions combined. Membrane suspensions were prepared and used on the same day. Protein content of the crude homogenates was determined by the method of Bradford, Anal. Biochem., 72:248-252 (1976).
Each assay tube contained 0.5 mL of membrane suspension, 3 nm of tritiated Compound U69,593 [(5a,7a,8b)-(−)-N-methyl-N-(7-(1-pyrrolidinyl)-1-oxaspiro(4,5)dec-8-yl)-benzeneacetamide; Lahti et al., European J. Pharmacol., 109:281-284(199-85)] in a total volume of 0.65 mL. Assay tubes were incubated for 2.5 hours a 25° C. The assay was then filtered through GF-B filters on a Tomec™ harvester (Orange, Conn.). The filters were subsequently washed with 6 mL of 50 mM Tris-HC1, pH 7.4 at 4° C. Bound radioactivity was counted on a Wallace™ Beta-plate Liquid Scintillation Counter (Piscataway, N.J.). Unlabeled U50, 488 [(trans-(dl)-3,4-dichloro-N-methyl-N-[2-(1-pyrrolidinyl)cyclohexyl]-benzeneacetamide) methane sulfonate hydrate; Lahti et al., Life Sci., 31:2257-xx(1982) and Von Voightlander et al., J. Pharmacol. Exp. Ther., 224:7 (1983)] was used as a competitive inhibitor to generate a standard curve and determine nonspecific binding. The results of these assays are shown in the table, below, wherein the “R” groups are as discussed for Example 1.

Structure (SMILES) | % Bound (mu opiate receptor) [%] | Mean (mu opiate receptor) | Minus NSB* (mu opiate receptor) | % Inhibition (mu opiate receptor) [%] | % Bound (kappa opiate receptor) [%] | % Inhibition (kappa opiate receptor) [%] | Mean (kappa opiate receptor) | Minus NSB (kappa opiate receptor)
CCOc1ccc(Cc2nc(C(C)C)c3n2C(C(C)C)C(=O)N3)cc1 (racemic) [Pool 79] | 65 | 929.1 | 621.10 | 35 | 90.338 | 9.662 | 1842.9 | 935.90
CC(C)c1nc(Cc2ccc(Cl)c(Cl)c2)n2c1NC(=O)C2C(C)C (racemic) [Pool 81] | 71 | 988.3 | 680.30 | 29 | 89.223 | 10.777 | 1831.35 | 924.35
CC(C)c1nc(Cc2cc(C(F)(F)F)cc(C(F)(F)F)c2)n2c1NC(=O)C2C(C)C (racemic) [Pool 82] | 63 | 911.65 | 603.65 | 37 | 70.589 | 29.411 | 1638.3 | 731.30
CC(C)c1nc(Cc2ccc(-c3ccccc3)cc2)n2c1NC(=O)C2C(C)C (racemic) [Pool 84] | 57 | 850.4 | 542.40 | 43 | 69.624 | 30.376 | 1628.3 | 721.30
COc1ccc(Cc2nc(C(C)C)c3n2C(C(C)C)C(=O)N3)cc1OC (racemic) [Pool 87] | 59 | 870.35 | 562.35 | 41 | 81.337 | 18.663 | 1749.65 | 842.65
CC(C)c1nc(Cc2ccccc2)n2c1NC(=O)C2C(C)C (racemic) [Pool 110] | 54 | 818.7 | 510.70 | 46 | 73.451 | 26.549 | 1667.95 | 760.95
CC(C)c1nc(CCCc2ccccc2)n2c1NC(=O)C2C(C)C (racemic) [Pool 113] | 43 | 716.3 | 408.30 | 57 | 61.597 | 38.403 | 1545.15 | 638.15
CCCc1nc(C(C)C)c2n1C(C(C)C)C(=O)N2 (racemic) [Pool 121] | 54 | 826.45 | 518.45 | 46 | 60.468 | 39.532 | 1533.45 | 626.45
CCCCCCc1nc(C(C)C)c2n1C(C(C)C)C(=O)N2 (racemic) [Pool 122] | 53 | 817.3 | 509.30 | 47 | 51.805 | 48.195 | 1443.7 | 536.70
CC(C)c1nc(C(C)C)n2c1NC(=O)C2C(C)C (racemic) [Pool 123] | 55 | 832.5 | 524.50 | 45 | 57.124 | 42.876 | 1498.8 | 591.80
Cc1nc(C(C)C)c2n1C(C(C)C)C(=O)N2 (centres unmarked) [Pool 3] | 70 | 974.05 | 666.05 | 30 | 54.228 | 45.772 | 1468.8 | 561.80
Cc1nc(C(C)C)c2n1C(CC(C)C)C(=O)N2 (centres unmarked) [Pool 4] | 70 | 980.1 | 672.10 | 30 | 95.420 | 4.580 | 1895.55 | 988.55
CCC(C)C1C(=O)Nc2c(C(C)C)nc(C)n21 (centres unmarked) [Pool 5] | 78 | 1052.8 | 744.80 | 22 | 75.043 | 24.957 | 1684.45 | 777.45
CCCCC1C(=O)Nc2c(C(C)C)nc(C)n21 (centres unmarked) [Pool 11] | 47 | 756.05 | 448.05 | 53 | 80.034 | 19.966 | 1736.15 | 829.15
CCCC1C(=O)Nc2c(C(C)C)nc(C)n21 (centres unmarked) [Pool 12] | 72 | 998.7 | 690.70 | 28 | 74.706 | 25.294 | 1680.95 | 773.95
Cc1nc(C(C)C)c2n1C(C)C(=O)N2 (centres unmarked) [Pool 18] | 71 | 989.15 | 681.15 | 29 | 88.016 | 11.984 | 1818.85 | 911.85
Cc1nc(C(C)C)c2n1C(C(C)C)C(=O)N2 (centres unmarked) [Pool 19] | 75 | 1027.75 | 719.75 | 25 | 84.580 | 15.420 | 1783.25 | 876.25
Cc1nc(C(C)C)c2n1C(CC(C)C)C(=O)N2 (centres unmarked) [Pool 20] | 50 | 787.6 | 479.60 | 50 | 68.996 | 31.004 | 1621.8 | 714.80
CCC(C)C1C(=O)Nc2c(C(C)C)nc(C)n21 (centres unmarked) [Pool 21] | 55 | 833.5 | 525.50 | 45 | 56.921 | 43.079 | 1496.7 | 589.70
CCCCC1C(=O)Nc2c(C(C)C)nc(C)n21 (centres unmarked) [Pool 27] | 59 | 871.25 | 563.25 | 41 | 79.855 | 20.145 | 1734.3 | 827.30
CCCC1C(=O)Nc2c(C(C)C)nc(C)n21 (centres unmarked) [Pool 28] | 66 | 932.9 | 624.90 | 34 | 67.601 | 32.399 | 1607.35 | 700.35
Cc1nc(C(C)C)c2n1C(CC1CCCCC1)C(=O)N2 (centres unmarked) [Pool 29] | 61 | 891.65 | 583.65 | 39 | 88.277 | 11.723 | 1821.55 | 914.55
